# Test results: patent US6413764B1, “Human metabotropic glutamate receptors, nucleic acids encoding same and uses thereof” (Merck & Co., Inc., priority 1993, dated 2002)
# Assays:
# [1] = target: T1, human mGluR5a receptor (Homo sapiens, UniProt P41594); assay: Two-electrode voltage clamp of Xenopus oocytes injected with mGluR5a3 transcripts; type: cell-based; settings: for transmembrane currents after application of the compound: oocytes injected with mGluR5a3 transcripts, 0.001-0.1 μM quisqualate, 0.1-10 μM glutamate, 0.1-300 μM 1S,3R-ACPD, clamped at −80 to −100 mV; for dose-response of current magnitude: varying amounts of each compound, mGluR5a3 transcripts
# T1 sequence (P41594 21-1180 isoform P41594-2 limits assumed): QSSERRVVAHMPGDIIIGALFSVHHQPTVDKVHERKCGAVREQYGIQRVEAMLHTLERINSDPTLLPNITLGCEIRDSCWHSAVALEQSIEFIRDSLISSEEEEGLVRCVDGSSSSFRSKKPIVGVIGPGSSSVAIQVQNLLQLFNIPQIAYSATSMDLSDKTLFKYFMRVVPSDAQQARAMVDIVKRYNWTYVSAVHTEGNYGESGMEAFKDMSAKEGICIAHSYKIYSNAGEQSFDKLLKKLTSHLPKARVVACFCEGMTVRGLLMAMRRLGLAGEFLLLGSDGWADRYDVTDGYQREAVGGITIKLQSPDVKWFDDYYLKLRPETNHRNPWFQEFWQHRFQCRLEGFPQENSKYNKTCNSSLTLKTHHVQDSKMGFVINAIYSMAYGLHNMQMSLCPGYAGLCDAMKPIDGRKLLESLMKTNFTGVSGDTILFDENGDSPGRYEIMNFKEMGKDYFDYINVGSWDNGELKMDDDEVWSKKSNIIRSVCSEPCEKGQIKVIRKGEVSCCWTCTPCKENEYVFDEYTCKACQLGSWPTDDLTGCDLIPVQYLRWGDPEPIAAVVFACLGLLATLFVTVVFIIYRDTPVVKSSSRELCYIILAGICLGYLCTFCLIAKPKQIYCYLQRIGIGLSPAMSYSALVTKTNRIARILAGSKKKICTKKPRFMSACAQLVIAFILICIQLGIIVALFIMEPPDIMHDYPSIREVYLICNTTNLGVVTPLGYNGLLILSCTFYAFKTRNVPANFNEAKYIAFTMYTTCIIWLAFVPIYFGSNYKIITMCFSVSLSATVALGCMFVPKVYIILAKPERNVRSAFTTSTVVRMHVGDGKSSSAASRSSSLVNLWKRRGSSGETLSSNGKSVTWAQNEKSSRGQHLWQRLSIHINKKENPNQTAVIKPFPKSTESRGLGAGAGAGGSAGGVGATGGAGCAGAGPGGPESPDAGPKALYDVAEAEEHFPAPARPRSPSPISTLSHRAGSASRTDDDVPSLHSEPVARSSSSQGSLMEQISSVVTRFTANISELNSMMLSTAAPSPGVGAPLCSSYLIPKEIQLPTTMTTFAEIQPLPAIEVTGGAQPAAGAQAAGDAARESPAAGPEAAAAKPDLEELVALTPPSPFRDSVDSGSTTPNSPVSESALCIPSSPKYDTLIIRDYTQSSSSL
# Procedure: Xenopus oocytes were injected with in vitro transcripts prepared from constructs containing DNA encoding human metabotropic receptors. Electrophysiological measurements of the oocyte transmembrane currents were made using the two-electrode voltage clamp technique (see e.g., Stuhmer (1992) Meth. Enzymol. 207:319-339).
# Recombinant capped transcripts of metabotropic receptor cDNAs contained in construct mGluR5a3 were synthesized from linearized plasmids using the Megascript Kit (Cat. #1334, Ambion, Inc., Austin, Tex.). The mass of each synthesized transcript was determined by UV absorbance and the integrity of each transcript was determined by electrophoresis through an agarose gel.
# Xenopus oocytes were injected with 10-50 ng of metabotropic receptor transcripts per oocyte. The preparation and injection of oocytes were carried out as described by Dascal [(1987) Crit; Rev. Biochem. 22:317-387]. Two-to-six days following mRNA injection, the oocytes were examined using the two-electrode voltage clamp technique. The cells were bathed in Ringer's solution (115 mM NaCl, 2.5 mM KCl, 1.8 mM CaCl2, 10 mM HEPES, pH 7.3), and the membrane potential was clamped at −80 to −100 mV. Drugs were applied by pipetting 60 μl aliquots of drug-containing solution directly into the bath. Data were sampled at 2-5 Hz with a Labmaster data acquisition board in PC-386 using AXOTAPE version 1.2 (Axon Instruments, Foster City, Calif.) software. Data were exported to a laser printer or plotted using Sigmaplot version 5.0.
# Metabotropic receptor-modulating compounds, i.e., 0.001-0.1 μM quisqualate, 0.1-10 μM glutamate and 0.1-300 μM 1S,3R-ACPD (1-amino-cyclopentyl-1,3-dicarboxylic acid), were applied to the bath and the transmembrane currents were recorded.
# [2] = target: T1, human mGluR5a receptor; assay: Fluorescence imaging assay (fura-2) in HEK 293 cells transiently transfected with mGluR5a3; type: cell-based; parameters: expressed in transfected cells; host or cells: HEK 293 cells, transient CaPO4 transfection; settings: 100 μM; HEK 293 transiently transfected with mGluR5a3
# Procedure: (§1) HEK 293 cells that had been transiently transfected with mGluR5a3 and untransfected HEK 293 cells (control) were analyzed by digital video imaging in order to visualize metabotropic receptor-mediated changes in intracellular Ca^++ concentration. Transfectants (4×10^5 cells per 35-mm culture dish with glass-insert bottom) were loaded with fura-2 by exposing the cells to 1 μM fura-2 (acetoxymethyl ester) for 25 min at room temperature in the dark. The cells were then washed three times with DMEM and four times with Ringer's (160 mM NaCl, 5 mM KCl, 2 mM CaCl2, 1 mM MgCl2, 11 mM glucose, 5 mM HEPES, pH 7.3) solution.
# (§2) The transfectants and untransfected cells were then placed on the stage of an Axiovert 100 TV inverted microscope (Zeiss, Oberkochren, Germany) equipped with a 150 W xenon lamp as the UV light source. […]
# (§3) The uncalibrated fura-2 ratios were used to generate pseudocolor images with purple corresponding to resting intracellular Ca^++ concentration (˜100 nM) and red to high intracellular Ca^++ concentration (˜1 μM). For quantitative analysis, the average ratio value in a 12-by-12 pixel region over each cell was calculated by the software for each ratio image in an experiment and imported into a spreadsheet for further analysis and graphing.
# [3] = system: untransfected HEK 293 cells; assay: Fluorescence imaging assay (fura-2), untransfected control cells; type: cell-based, human; settings: 100 μM, on average
# Procedure: as §1, §2, §3
Compound,transmembrane currents after application of the compound [1],dose-response of current magnitude [1],transfected cells whose intracellular Ca++ concentration increased [2],intracellular Ca++ concentration change [3]
"NC1(C(=O)O)CCC(C(=O)O)C1 (stereo not drawn) [1S,3R-ACPD, 1-amino-cyclopentyl-1,3-dicarboxylic acid]",Significant currents were detected,current magnitude increased with increasing concentration,,
N[C@@H](Cn1oc(=O)[nH]c1=O)C(=O)O [quisqualate],Significant currents were detected,current magnitude increased with increasing concentration,26.7±22.3%,did not change
N[C@@H](CCC(=O)O)C(=O)O [glutamate],Significant currents were detected,current magnitude increased with increasing concentration,,
